Test results from ChEMBL document CHEMBL2151005, “Discovery of 1H-pyrrolo[2,3-c]pyridine-7-carboxamides as novel, allosteric mGluR5 antagonists” (Bioorg Med Chem Lett, 2012).
Values belong to the compound of their own block, whether it stands above or below them.

Key:
physchem [1] = assay: physchem
physchem [2] = conditions: octanol/water

Compound: Cc1csc(NC(=O)c2nc(C)cc3cc[nH]c23)n1
- pKa (physchem [1]): 5.6
- logP (physchem [2]): 3.9

Compound: Cc1cc2cc[nH]c2c(C(=O)Nc2ccn(C)n2)n1
- pKa (physchem [1]): 4.1
- logP (physchem [2]): 2.9

Compound: Cc1c[nH]c(NC(=O)c2nc(C)cc3cc[nH]c23)n1
- pKa (physchem [1]): 7.6
- logP (physchem [2]): 3.1

Results, then the compound that gave them:

- pKa (physchem [1]): 3.5
- logP (physchem [2]): 4.2
Compound: Cc1cc2cc[nH]c2c(C(=O)Nc2ccccn2)n1

- pKa (physchem [1]): 4.5
- logP (physchem [2]): 5.3
Compound: Cc1cccc(NC(=O)c2nc(C)cc3cc[nH]c23)n1

- pKa (physchem [1]): 4.5
- logP (physchem [2]): 4.7
Compound: Cc1cccc(NC(=O)c2nc(C)cc3c(-c4ccccn4)c[nH]c23)n1

- pKa (physchem [1]): 4.6
- logP (physchem [2]): 3.7
Compound: Cc1cc2c(-c3ccccn3)c[nH]c2c(C(=O)Nc2ccn(C)n2)n1

- pKa (physchem [1]): 6.9
- logP (physchem [2]): 3.3
Compound: Cc1c[nH]c(NC(=O)c2nc(C)cc3c(-c4ccccn4)c[nH]c23)n1
